How the values were obtained:
[1] = system: human washed platelets; assay: Platelet ROS release assay (DCFH-DA); type: cell-based; settings: luteolin 25 μM, BAY61-3606 63 nM
Method: The assay was performed as previously reported with minor modifications ([Arthur et al., 2012]; [Ye et al., 2020]). Briefly, WPs (500 × 10^9/L) were labeled with 5 μM Fluo-3AM (Cat No. IF0150; Solarbio) or 10 μM DCFH-DA (Cat No. D6883; Sigma, St. Louis, MO, United States) at 37°C for 30 min protected from light. […] In addition, 1 mM CaCl2 and collagen or convulxin were added to start the reaction. […] A ROS probe via a fluorescent enzyme marker was added. O2 ^− and H2O2 were measured using 2 μM Amplex Red (Cat No. ST010; Beyotime Institute of Biotechnology, Shanghai, China) or 2 μM Dihydroethidium (DHE, Cat No. S0063; Beyotime Institute of Biotechnology, Shanghai, China). O2 ^− and H2O2 were analyzed using a Fluoroskan Ascent fluorometer (Thermo Fisher, Waltham, Massachusetts, United States).

[2] = system: NOXs; assay: NADPH oxidase (NOX) activity assay in platelet lysate; type: cell-based, human; settings: convulxin (5 ng/mL)- and collagen (10 μg/mL)-induced; VAS2870 10 μM
Method: MDA, SOD, GPx, and NADPH oxidase activity were measured as previously described ([Krotz et al., 2002]; [Paul et al., 2019]; [Pan et al., 2021]). After incubation and activation, the reaction was stopped by adding 10 mM EGTA. The platelets were pelleted by centrifugation at 20,000 × g for 10 min at 4°C and resuspended in Tyrode’s buffer with 0.1% phosphatase and protease inhibitors (Cat No. 04906837001, Roche Applied Science, Penzberg, Germany; Cat No. P-8340, Sigma, St. Louis, MO, United States). The platelets were disrupted by passing them 10 times through a 29-gauge needle, followed by centrifugation at 2000 × g for 10 min at 4°C to separate the supernatant and precipitate. The detection of MDA, SOD, and GPx in the supernatant was performed according to the kit’s instructions for SOD (Cat No. BC0170, Solarbio Life Science, Beijing, China), MDA (Cat No. S0131S, Beyotime Institute of Biotechnology, Shanghai, China) and GPx (Cat No. S0056, Beyotime Institute of Biotechnology, Shanghai, China). In order to determine NADPH oxidase (NOX) activity, platelet lysate (12.5 μg) was incubated with 10 µM lucigenin and 0.5 mM NADPH at 37°C in the dark. The absorbance values were detected at 450 nm using a spectrophotometer Multiskan FC (ThermoFisher Scientific Inc., Waltham, MA, United States). Protein content was determined by the Bradford method.

[3] = system: mesenteric artery thrombosis; assay: Ferric chloride-induced mesenteric thrombosis in mice; type: in vivo, C57BL/6 mice; settings: luteolin 35 μM/kg or aspirin 0.5 mM/kg i.p., 30 min before FeCl3
Method: A method reported in the literature was used to observe mesenteric artery thrombosis in mice ([Bonnard and […], 2015]). […] The mice were anesthetized by an intraperitoneal injection of pentobarbital (45 mg/kg). They were given an intraperitoneal injection of DMSO, luteolin, or aspirin. They were also given an orbital vein injection of 5 μg/kg rhodamine (Cat No. 83697-250 MG; Sigma-Aldrich, St. Louis, MO, United States) ([Bonnard and […], 2015]), respectively. The mesenteric vessels were exposed by opening the abdominal cavity, and small mesenteric arteries with a diameter of approximately 150-250 μm were selected under the microscope. […] During thrombosis, images were taken every 1 min for the first 10 min and every 5 min after 10 min using an MSHOT MD50 camera (Micro Shot Technology Ltd., Guangzhou, China) and an Olympus ix73 microscope (Olympus Corp., Shinjuku, Japan). […] The size of the thrombus formation was calculated using ImageJ software.

[4] = Tail bleeding in mice; type: in vivo, C57BL/6 mice; settings: luteolin 35 μM/kg or aspirin i.p., 30 min after injection; vs DMSO
Method: The tail break hemorrhage experiment in mice was performed as previously reported, with slight modifications ([Liu et al., 2012]). […] Before the experiment, the mouse tails were immersed in saline for 3 min at 37°C. Then, 30 min after injection, the tails were quickly cut off using a surgical knife blade and placed in saline at 37°C. The cutting site was 5 mm from the end of the tail tip. The bleeding time of the broken tails was observed and recorded.

With `COc1ccc(-c2cc3nccn3c(Nc3ncccc3C(N)=O)n2)cc1OC` [BAY61-3606, reference compound] the “effect on platelet ROS release” value ([1]; collagen (10 μg/mL)-induced) was “decreasing levels” and the “effect on platelet ROS release” value ([1]; convulxin (5 ng/mL)-induced) was “decreased”.

In the case of `c1ccc(Cn2nnc3c(Sc4nc5ccccc5o4)ncnc32)cc1` [VAS2870, reference compound], the NOXs activity [2] was “significantly decreased”.

With `CC(=O)Oc1ccccc1C(=O)O` [aspirin, reference compound] the “time of clot obstruction of blood vessels” value [3] was “significantly prolong”, the “time of initial thrombus formation” value [3] was “Neither the 0.5 mM/kg aspirin group or 35 μM/kg luteolin group prolonged” and the tail bleeding time [4] was “significantly prolonged”.

From article PMC10644720 (Frontiers in Pharmacology, 2023)
